Bounds are passed on as bounds.

By Ki is commonly meant the dissociation constant of the complex between target and ligand, obtained from inhibition or displacement.

T1 sequence (A0A0F6TMT6 1-401): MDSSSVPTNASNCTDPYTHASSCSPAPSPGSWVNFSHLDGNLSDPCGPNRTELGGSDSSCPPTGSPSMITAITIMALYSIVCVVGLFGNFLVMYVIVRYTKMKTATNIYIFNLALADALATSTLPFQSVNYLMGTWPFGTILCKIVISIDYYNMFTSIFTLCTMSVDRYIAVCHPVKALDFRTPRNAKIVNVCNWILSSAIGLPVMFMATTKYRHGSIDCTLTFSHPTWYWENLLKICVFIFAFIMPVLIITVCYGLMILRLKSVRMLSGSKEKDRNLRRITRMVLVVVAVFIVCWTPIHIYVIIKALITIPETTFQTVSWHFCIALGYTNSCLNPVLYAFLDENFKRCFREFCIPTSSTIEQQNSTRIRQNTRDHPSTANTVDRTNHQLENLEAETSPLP

The test addresses T1, mu opioid receptor (Canis lupus familiaris, UniProt A0A0F6TMT6).
T1 construct: from tissue; host or cells: beagle brain without cerebellum, membrane homogenate
Put plainly: mu opioid receptor binding assay (displacement of 3H-DAMGO) in dog brain membranes. The following applies: 3H ligand DAMGO, room temperature 90 minutes, read-out: Ki values for the μ receptor. As to the method:
The assays were conducted by the following procedure.
Laboratory bred beagles were used as a source of dog brain tissue. Animals were euthanised, their brains removed and the cerebellum discarded. The remaining brain tissue was sectioned into small pieces approximately 3 g in weight and homogenised in 50 mM Tris pH 7.4 buffer at 4° C. using a Kinematica Polytron™ tissue homogeniser. The resulting homogenate was centrifuged at 48,400×g for 10 minutes and the supernatant discarded. The pellet was resuspended in Tris buffer and incubated at 37° C. for 10 minutes. Centrifugation, resuspension and incubation steps were repeated twice more, and the final pellet was resuspended in Tris buffer and stored at −80° C. Membrane material prepared in this manner could be stored for up to four weeks prior to use.
For mu assays, increasing concentrations of experimental compound, (5×10^−12 to 10^−5 M), Tris buffer and ^3H ligand, ([D-Ala^2,N-Me-Phe^4,Gly-ol^5]-Enkephalin, DAMGO), were combined in polystyrene tubes. The reaction was initiated by the addition of tissue, and the mixture was incubated at room temperature for 90 minutes. The reaction was terminated by rapid filtration using a Brandel Cell Harvester™ through Betaplate™ GF/A glass fibre filters pre-soaked in 50 mM Tris pH 7.4, 0.1% polyethylenimine buffer. The filters were then washed three times with 0.5 mL ice-cold Tris pH 7.4 buffer. Washed filters were placed in bags and Starscint™ scintillant added. Bags containing the filters and scintillant were heat sealed and counted by a Betaplate™ 1204 beta counter.
Duplicate samples were run for each experimental compound and the data generated was analysed using IC50 analysis software in Graphpad Prism.
Ki values were calculated using Graphpad Prism according to the following formula:
Ki=IC50/1+[^3H ligand]/KD
where IC50 is the concentration at which 50% of the ^3H ligand is displaced by the test compound and KD is the dissociation constant for the ^3H ligand at the receptor site.
In the case of `CCCCCCN1CCC(C)(c2ccc3[nH]c(OC)nc3c2)C(C)C1` (racemic) [Example 7, Trans-(±)-2-Methoxy-5-(1-hexyl-3,4-dimethyl-4-piperidinyl)-1H-benzimidazole], the inhibitory constant (Ki) is not above 4 µM.

Consider `CCCCCCN1CCC(C)(c2ccc3[nH]c(CC)nc3c2)C(C)C1` (racemic) [Example 12, Trans-(±)-2-ethyl-5-(1-Hexyl-3,4-dimethyl-4-piperidinyl)-1H-benzimidazole], for which the Ki is not above 4 µM.

For the compound `CC(C)CCCCN1CCC(C)(c2ccc3[nH]cnc3c2)C(C)C1` (racemic) [Example 21, Trans-(±)-5-[1-(5-Methylhexyl)-3,4-dimethyl-4-piperidinyl]-1H-benzimidazole], the Ki was not above 4 µM.

Turning to `CCCCCCN1CCC(C)(c2ccc3[nH]c(C)nc3c2)C(C)C1` (racemic) [Example 3, Trans-(±)-2-Methyl-5-(1-hexyl-3,4-dimethyl-4-piperidinyl)-1H-benzimidazole], the Ki was not above 4 µM.

For `CCCCCCN1CCC(C)(c2ccc3nc(C)oc3c2)C(C)C1` (racemic) [Example 28, Trans-(±)-2-Methyl-6-(1-hexyl-3,4-dimethyl-4-piperidinyl)-1,3-benzoxazole], the Ki was not above 4 µM.

Consider `Cc1cccc(CCN2CCC(C)(c3ccc4[nH]c(C(F)(F)F)nc4c3)C(C)C2)c1` (racemic) [Example 18, Trans-(±)-2-(Trifluoromethyl)-5-[1-(3-methylphenethyl)-3,4-dimethyl-4-piperidinyl]-1H-benzimidazole], for which the Ki was not above 4 µM.

The values are drawn from patent US6441000B1, “Compounds useful in therapy” (Pfizer Inc, priority 1999, dated 2002).
